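Cultured in 96-well plates, cells were exposed to test compound for 48 hours across five concentrations. GI50 is the concentration that inhibits growth by half.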 Calls of active or inactive are those of the source. No stated cut-off is given here; in the data, active = GI50 up to about 1.1 µM and inactive = higher.
Legend:
Assay in all cases: NCI-60 cell line screen, 48 h
786-0 = tested on: 786-0
A498 = tested on: A498
A549 = tested on: A549
CAKI-1 = tested on: CAKI-1
CCRF-CEM = tested on: CCRF-CEM
COLO 205 = tested on: COLO 205
EKVX = tested on: EKVX
HOP-92 = tested on: HOP-92
KM12 = tested on: KM12
MDA-N = tested on: MDA-N
MOLT-4 = tested on: MOLT-4
OVCAR-4 = tested on: OVCAR-4
OVCAR-5 = tested on: OVCAR-5
SF-268 = tested on: SF-268
SF-295 = tested on: SF-295
SK-MEL-28 = tested on: SK-MEL-28
SK-OV-3 = tested on: SK-OV-3
UACC-257 = tested on: UACC-257
UACC-62 = tested on: UACC-62
HCC 2998 = tested on: HCC 2998

Measured: GI50

Cc1ccc(SCN2CCCCC2)cc1.O=C(Cl)c1ccc([N+](=O)[O-])cc1
inactive: 786-0 15.1 µM | A498 2.76 µM | A549 21.2 µM | CAKI-1 8.87 µM | CCRF-CEM 2.03 µM | COLO 205 4.86 µM | EKVX 11.8 µM | HOP-92 9.18 µM | KM12 10.8 µM | MDA-N 6.25 µM | MOLT-4 3.37 µM | OVCAR-4 12.4 µM | OVCAR-5 10.7 µM | SF-268 5.98 µM | SF-295 16 µM | SK-MEL-28 13.4 µM | SK-OV-3 12.9 µM | UACC-257 14.6 µM | UACC-62 13.7 µM

Oc1c(CN2CCOCC2)ccc(CN2CCOCC2)c1O
inactive: 786-0 37.5 µM | A498 > 100 µM | A549 39.4 µM | CAKI-1 52 µM | CCRF-CEM 3.62 µM | COLO 205 45.9 µM | EKVX 50.8 µM | HOP-92 > 100 µM | KM12 75.7 µM | MDA-N 50.2 µM | MOLT-4 24.2 µM | OVCAR-4 > 100 µM | OVCAR-5 57 µM | SF-268 30.9 µM | SF-295 26 µM | SK-MEL-28 61.5 µM | SK-OV-3 54 µM | UACC-257 27.2 µM | UACC-62 25.2 µM

CC(C)(C)c1ccc(O)c(CN(Cc2cc(C(C)(C)C)ccc2O)c2ccccc2)c1
inactive: 786-0 16.6 µM | A498 14.8 µM | A549 17.5 µM | CAKI-1 31.8 µM | CCRF-CEM 32.4 µM | COLO 205 17.1 µM | EKVX 16.5 µM | HOP-92 16.2 µM | KM12 22.2 µM | MDA-N 16.6 µM | MOLT-4 15.6 µM | OVCAR-4 19.2 µM | OVCAR-5 16.1 µM | SF-268 17.6 µM | SF-295 17.5 µM | SK-MEL-28 17.5 µM | SK-OV-3 29.4 µM | UACC-257 2.48 µM | UACC-62 14.7 µM

O=C(O)c1cscc1Cc1cccs1
inactive: 786-0 > 100 µM | A498 > 100 µM | A549 > 100 µM | CAKI-1 > 100 µM | CCRF-CEM > 100 µM | COLO 205 > 100 µM | EKVX > 100 µM | HOP-92 > 100 µM | KM12 > 100 µM | MDA-N > 100 µM | MOLT-4 > 100 µM | OVCAR-4 > 100 µM | OVCAR-5 > 100 µM | SF-268 > 100 µM | SF-295 > 100 µM | SK-MEL-28 > 100 µM | SK-OV-3 > 100 µM | UACC-257 > 100 µM | UACC-62 > 100 µM

OCCCNCc1ccncc1
inactive: 786-0 > 100 µM | A498 > 100 µM | A549 > 100 µM | CAKI-1 > 100 µM | CCRF-CEM > 100 µM | COLO 205 > 100 µM | EKVX > 100 µM | HOP-92 > 100 µM | KM12 > 100 µM | MDA-N > 100 µM | MOLT-4 > 100 µM | OVCAR-4 > 100 µM | OVCAR-5 > 100 µM | SF-268 > 100 µM | SF-295 > 100 µM | SK-MEL-28 > 100 µM | SK-OV-3 > 100 µM | UACC-62 > 100 µM

Nc1nc(SCC(=O)O)nc(O)c1N
inactive: 786-0 41.6 µM | A498 > 100 µM | A549 > 100 µM | CAKI-1 > 100 µM | CCRF-CEM 1.32 µM | COLO 205 > 100 µM | EKVX > 100 µM | HOP-92 > 100 µM | KM12 > 100 µM | MDA-N 33.2 µM | MOLT-4 37.6 µM | OVCAR-4 50.9 µM | OVCAR-5 > 100 µM | SF-268 > 100 µM | SF-295 > 100 µM | SK-MEL-28 > 100 µM | SK-OV-3 > 100 µM | UACC-257 70.5 µM | UACC-62 > 100 µM

Cc1ccc(N(C)S(=O)(=O)c2ccccc2)cc1
inactive: 786-0 > 100 µM | A549 > 100 µM | CAKI-1 > 100 µM | CCRF-CEM > 100 µM | COLO 205 > 100 µM | EKVX 97.9 µM | HCC 2998 > 100 µM | KM12 > 100 µM | MDA-N > 100 µM | MOLT-4 19 µM | OVCAR-4 > 100 µM | OVCAR-5 > 100 µM | SF-268 > 100 µM | SF-295 > 100 µM | SK-MEL-28 > 100 µM | SK-OV-3 > 100 µM | UACC-257 > 100 µM | UACC-62 84.5 µM

Reference: ChEMBL document CHEMBL1201862, “PubChem BioAssay data set” (2004)
